Assay results reported in PubChem BioAssay AID1996.
Converted amounts (≈) assume the structure as drawn.

Details: buffer; pH 7.4; 200.0 µM

Structure (SMILES) | solubility kinetic
O=C1ON=C(c2ccccc2)/C1=C/c1ccccc1 | 34.7 µg/mL (≈ 139 µM)
Cc1cc2nccc(-c3ccncc3)n2n1 | > 31.5 µg/mL
CN(C)Cc1cccc([N+](=O)[O-])c1O | > 29.4 µg/mL
C=C1C(C(=O)Nc2ccccc2)C1C(=O)Nc1ccccc1 (stereo not given) | < 0.3 µg/mL
CN(CC(=O)Nc1ccc(F)cc1[N+](=O)[O-])Cc1ccccc1 | 1 µg/mL (≈ 3.15 µM)
COc1ccccc1CNC(=O)CSc1n[nH]c(N)n1 | > 44 µg/mL
Cc1cccc(NC(=O)NC2CC3CCC(C2)N3Cc2ccco2)c1 (stereo not given) | 11.1 µg/mL (≈ 32.7 µM)
CC(=O)N1CCN(Cc2nc3cc(Cl)ccc3c(=O)[nH]2)CC1 | > 48.1 µg/mL
Cl.N=c1n(CCO)c2ccccc2n1CCN1CCCCC1 | > 48.7 µg/mL
Cc1ccccc1NC(=O)CCCNC(=O)c1ccc(Cl)cc1 | 42.6 µg/mL (≈ 129 µM)
Cc1ncc([N+](=O)[O-])n1Cc1ccccc1F | > 35.3 µg/mL
Cc1cccc2c1NC(=O)C2=Nc1ccc(Cl)cc1 | 4.7 µg/mL (≈ 17.4 µM)
CCC(OCC(O)CN1CCCCC1)c1ccccc1.Cl (stereo not given) | > 47.1 µg/mL
COCCNC(=O)/C(C#N)=C/c1ccc(OCc2ccc(F)cc2)cc1 | 3.4 µg/mL (≈ 9.59 µM)
O=C1CC2(CCN(C(=O)c3ccc([N+](=O)[O-])cc3)CC2)Oc2ccccc21 | 3.2 µg/mL (≈ 8.73 µM)
NC(=NC(=O)c1ccc(OCC(F)(F)F)nc1)c1ccccc1 | 6.6 µg/mL (≈ 20.4 µM)
Cn1c(=O)[nH]c(=O)c2c1nc(N)n2Cc1ccccc1 | > 40.7 µg/mL
CCOC(=O)c1csc(NC(=O)c2ccc(C#N)cc2)n1 | 1 µg/mL (≈ 3.32 µM)
CC(C)(C)CC(=O)N1CCN(Cc2ccc3c(c2)OCO3)CC1 | > 47.8 µg/mL
CN1C(=O)c2ccc(C(=O)Nc3cccnc3)cc2C1=O | > 42.2 µg/mL

Structure (SMILES) | solubility kinetic
CCC(CC)C(=O)c1c[nH]c(C(=O)OC)c1 | > 33.5 µg/mL
CC(C)n1c(SCC(=O)N2CCCCC2)nc2c1c(=O)n(C)c(=O)n2C | > 56.9 µg/mL
CCOC(=O)c1cc2c(ccn2C)n1CC(=O)N1C(C)CCCC1C (stereo not given) | > 51.8 µg/mL
CC(=NCCc1ccccc1)C1=C(O)C(c2ccccc2)OC1=O (stereo not given) | 31.7 µg/mL (≈ 98.6 µM)
CN(Cc1ccccc1)C(=O)CN1CCCC1=O | > 36.9 µg/mL
CCn1c(=O)c2ccccc2n2c(SCC(N)=O)nnc12 | > 45.5 µg/mL
COc1ccc(CNC(=O)c2nccnc2CO)cc1 | > 41 µg/mL
NC1=NC(=O)/C(=C\c2ccsc2)S1 | 28.6 µg/mL (≈ 136 µM)
N#Cc1c(-c2ccncc2)c2c([nH]c1=O)-c1ccccc1OC2 | 14.9 µg/mL (≈ 49.5 µM)
N#Cc1cccc(NC(=O)CC2CCCC2)c1 | 33.1 µg/mL (≈ 145 µM)
CCN1CCN(S(=O)(=O)c2ccc(OC)cc2)CC1 | 36.8 µg/mL (≈ 129 µM)
Cc1cc(Nc2ccccc2)n(-c2ccc(C(=O)O)cc2)n1 | > 44 µg/mL
Cc1cc(C)c(-c2c(O)c3cccnc3n(C)c2=O)c(C)c1 | 43.4 µg/mL (≈ 147 µM)
Cc1ccc(NC(/C=C/N(C)C)=C/C(=O)C(F)(F)F)c(C)c1 | 37.8 µg/mL (≈ 121 µM)
CNC(=O)NC(=O)C(C)Oc1ccccc1F (stereo not given) | 34.9 µg/mL (≈ 145 µM)
CC(C)c1ccc(NC(=O)N2CCOCC2)cc1 | > 37.2 µg/mL
Cc1ccc(CNC(=O)c2cccnc2)cc1 | > 33.9 µg/mL
Cn1nc(C(=O)NNC(=O)c2cccc(Cl)c2)ccc1=O | > 46 µg/mL
COc1ccc(CCC(=O)NCc2ccc3c(c2)OCO3)cc1 | 23.1 µg/mL (≈ 73.7 µM)
COC(=O)Cc1ccc(NC(=S)Nc2cccc(C)n2)cc1 | 1.6 µg/mL (≈ 5.07 µM)

Structure (SMILES) | solubility kinetic
COc1cc(C=O)cc(Cl)c1OC(=O)N1CCOCC1 | 39.5 µg/mL (≈ 132 µM)
O=S(=O)(Nc1ccccc1)c1ccc(NS(=O)(=O)c2cccs2)cc1 | 34.4 µg/mL (≈ 87.2 µM)
CC(=O)NC1CC2CCCC(C1)N2Cc1ccc(C)cc1 (stereo not given) | > 43 µg/mL
Cc1ccc(-n2c(C(C)C)nc3oc4ccccc4c(=O)c3c2=O)cc1 | 14.7 µg/mL (≈ 42.4 µM)
On1c(-c2ccccc2Cl)nc2ncccc21 | > 36.9 µg/mL
Cc1ccc(C(=O)Nc2ccc3c(c2)OCCO3)c(C)c1 | > 42.5 µg/mL
Cc1noc(C)c1COC(=O)c1csc2c1CCCC2 | 8.3 µg/mL (≈ 28.5 µM)
O=C(/C=C/c1ccccc1[N+](=O)[O-])N1CCOCC1 | > 39.3 µg/mL
O=C(NCC(=O)N1CCCCCCC1)c1ccccc1Cl | > 46.3 µg/mL
Cc1noc(C)c1S(=O)(=O)Nc1ccccc1OC(F)(F)F | 48.6 µg/mL (≈ 145 µM)
O=C(NC(=S)NNC(=O)c1ccco1)c1ccc(F)cc1 | > 46.1 µg/mL
C=CCNC(=S)Nc1cccc(N)c1 | > 31.1 µg/mL
COC(=O)c1sccc1NC(=O)Nc1ccc(C)cc1 | 10.1 µg/mL (≈ 34.8 µM)
O=C(O)c1ccc(-n2cc(C(=O)c3ccccc3O)cn2)cc1 | > 46.2 µg/mL
COc1cccc(C(=O)O/N=C(\N)c2ccccn2)c1OC | > 45.2 µg/mL
CCOc1ccccc1Nc1ccc2nonc2c1[N+](=O)[O-] | < 0.2 µg/mL
O=C1CC(Sc2ccc(Cl)cc2)C(=O)N1c1ccc2c(c1)OCCO2 (stereo not given) | 13 µg/mL (≈ 34.6 µM)
Cc1cc(OCC(=O)NC2CC2)c2c(C)cc(=O)oc2c1 | > 43.1 µg/mL
Cc1cccc(NC(=S)NCCc2ccccn2)c1 | > 40.7 µg/mL
O=C(NCC(=O)N1CCN(c2ccc([N+](=O)[O-])cc2)CC1)c1ccco1 | 11.4 µg/mL (≈ 31.8 µM)
